Measured values taken from patent US11986471B2, “Compounds and methods of use” (Tango Therapeutics, Inc., priority 2018, dated 2024).

Tests used:
[1] = tested on: HAP1 MTAP-intact; experiment: SDMA in-cell western assay, HAP1 MTAP-intact cell line; assay type: cell-based; settings: Homo sapiens
Summary of the method: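 Potency reflects cellular SDMA reduction, detected by in-cell western, in HAP1 cells with or without MTAP (endogenous expression versus null).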

[2] = target: T1, PRMT5 (Homo sapiens, UniProt O14744); experiment: PRMT5 IC50 assay in the presence of MTA as cofactor; assay type: biochemical; settings: for IC50: PRMT5, MTA as cofactor
T1 construct: purchased Viva (custom protein)
T1 sequence (O14744 whole entry): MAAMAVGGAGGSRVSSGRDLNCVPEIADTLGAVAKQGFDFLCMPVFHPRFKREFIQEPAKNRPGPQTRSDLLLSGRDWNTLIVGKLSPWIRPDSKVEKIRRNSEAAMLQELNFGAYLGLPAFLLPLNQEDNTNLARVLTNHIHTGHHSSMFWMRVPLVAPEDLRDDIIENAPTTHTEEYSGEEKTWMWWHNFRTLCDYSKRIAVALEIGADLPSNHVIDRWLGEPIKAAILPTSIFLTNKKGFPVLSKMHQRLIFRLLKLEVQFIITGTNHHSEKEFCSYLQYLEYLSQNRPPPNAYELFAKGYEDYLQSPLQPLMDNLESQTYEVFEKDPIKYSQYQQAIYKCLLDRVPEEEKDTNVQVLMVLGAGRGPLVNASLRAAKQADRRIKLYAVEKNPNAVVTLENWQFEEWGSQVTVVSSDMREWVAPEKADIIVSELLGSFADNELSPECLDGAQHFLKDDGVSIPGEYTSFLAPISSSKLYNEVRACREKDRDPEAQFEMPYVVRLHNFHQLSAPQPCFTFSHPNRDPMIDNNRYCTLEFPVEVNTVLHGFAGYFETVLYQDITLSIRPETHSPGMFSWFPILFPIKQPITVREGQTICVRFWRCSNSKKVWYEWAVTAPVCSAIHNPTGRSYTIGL
T1 sequence (Q9BQA1 whole entry partner): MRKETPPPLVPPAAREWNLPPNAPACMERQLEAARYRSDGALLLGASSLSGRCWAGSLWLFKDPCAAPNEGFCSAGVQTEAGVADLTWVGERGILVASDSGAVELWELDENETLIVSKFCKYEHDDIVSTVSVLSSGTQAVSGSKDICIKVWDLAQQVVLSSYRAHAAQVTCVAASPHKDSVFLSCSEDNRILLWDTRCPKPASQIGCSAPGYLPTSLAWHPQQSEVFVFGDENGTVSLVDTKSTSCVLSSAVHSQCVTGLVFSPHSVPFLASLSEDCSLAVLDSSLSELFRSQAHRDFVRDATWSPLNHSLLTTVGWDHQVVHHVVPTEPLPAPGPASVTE
Summary of the method: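 IC50 values were measured against human PRMT5 with SAM, with MTA, or with no cofactor. Ki was derived from IC50 as Ki=IC50/1.5 with SAM and Ki=IC50/13.5 with MTA, and the Ki(SAM)/Ki(MTA) ratio was then taken.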

[3] = tested on: HAP1 MTAP-deleted; experiment: SDMA in-cell western assay, HAP1 MTAP-deleted cell line; assay type: cell-based; settings: for IC50: Homo sapiens, HAP1 MTAP-deleted cell line; for MTAP Intact/Deleted Ratio: IC50 ratio HAP1 MTAP-intact / HAP1 MTAP-deleted
Summary of the method: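 These are IC50 values from an in-cell western measuring SDMA. The HAP1 cells used carry no MTAP, in contrast to the isogenic partner line with endogenous MTAP expression.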

[4] = target: T1, PRMT5; experiment: PRMT5 IC50 assay with no cofactor; assay type: biochemical
Summary of the method: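 Cofactor-free, SAM and MTA formats; IC50 μM; Ki = IC50/1.5 for SAM, IC50/13.5 for MTA.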

[5] = target: T1, PRMT5; experiment: PRMT5 IC50 assay in the presence of SAM as cofactor; assay type: biochemical
Summary of the method: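 Each compound is tested on PRMT5 in the presence of SAM, of MTA, and without any cofactor. Ki values are then back-calculated using fixed factors of 1.5 (SAM) and 13.5 (MTA), and the two Ki values are compared as a ratio.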

[6] = ratio between Ki in the presence of SAM and Ki in the presence of MTA
[7] = ratio between the Ki in the presence of SAM and the Ki in the presence of MTA

IC50 [1]	IC50 [2]	IC50 [3]	IC50 ([4]; read-out: No Co-factor IC50)	IC50 [5]	IC50 [4]	SMILES	SAM/MTA Ratio [2, 6]	MTAP Intact/Deleted Ratio [3]	SAM/MTA Ratio [2, 7]
≥ 10000 nM	50 to 500 nM	< 1000 nM	500 to 5000 nM	50 to 500 nM		CC(=O)N1CCC(Nc2cc(C(=O)NC[C@H](O)CN3CCc4cc(OCc5ocnc5C)c(F)cc4C3)ccn2)CC1 [Compound 625]	A (a Ki ratio greater than or equal to 10 fold between the Ki in the presence of SAM and the Ki in the presence of MTA)	A* (an IC50 ratio greater than or equal to 10 fold between the IC50 in the HAP1 MTAP-intact cell line and the HAP1 MTAP-deleted cell line)	
≥ 10000 nM	50 to 500 nM	1000 to 10000 nM		50 to 500 nM	500 to 5000 nM	CCCC(=O)N1CCC(Nc2cc(C(=O)NC[C@H](O)CN3CCc4c(ccc(OCc5cnco5)c4C)C3)ncn2)CC1 [Compound 560, 6-[(1-butanoylpiperidin-4-yl)amino]-N-[(2S)-2-hydroxy-3-{5-methyl-6-[(1,3-oxazol-5-yl)methoxy]-1,2,3,4-tetrahydroisoquinolin-2-yl}propyl]pyrimidine-4-carboxamide]		B* (an IC50 ratio greater than or equal to 3 fold but lower than 10 fold between the IC50 in the HAP1 MTAP-intact cell line and the HAP1 MTAP-deleted cell line)	A (a Ki ratio greater than or equal to 10 fold between the Ki in the presence of SAM and the Ki in the presence of MTA)

The next lines start with the compound.

SMILES	IC50 [1]	IC50 [2]	IC50 [3]	IC50 ([4]; read-out: No Co-factor IC50)	IC50 [5]	IC50 [4]	SAM/MTA Ratio [2, 6]	MTAP Intact/Deleted Ratio [3]	SAM/MTA Ratio [2, 7]
CC(=O)N1CCN(c2nc(NC3COC3)cc(C(=O)NC[C@H](O)CN3CCc4cc(OCc5cnco5)ccc4C3)n2)CC1 [Compound 321]	≥ 10000 nM	50 to 500 nM	1000 to 10000 nM	500 to 5000 nM	50 to 500 nM		A (a Ki ratio greater than or equal to 10 fold between the Ki in the presence of SAM and the Ki in the presence of MTA)	C* (an IC50 ratio of less than 3 fold between the IC50 in the HAP1 MTAP-intact cell line and the HAP1 MTAP-deleted cell line)	
CCN(C)c1nc(NC2COC2)cc(C(=O)NC[C@H](O)CN2CCc3cc(OCc4ocnc4C)ccc3C2)n1 [Compound 457, 2-[ethyl(methyl)amino]-N-[(2S)-2-hydroxy-3-{6-[(4-methyl-1,3-oxazol-5-yl)methoxy]-1,2,3,4-tetrahydroisoquinolin-2-yl}propyl]-6-[(oxetan-3-yl)amino]pyrimidine-4-carboxamide]	< 1000 nM	50 to 500 nM	< 1000 nM		50 to 500 nM	500 to 5000 nM		C* (an IC50 ratio of less than 3 fold between the IC50 in the HAP1 MTAP-intact cell line and the HAP1 MTAP-deleted cell line)	A (a Ki ratio greater than or equal to 10 fold between the Ki in the presence of SAM and the Ki in the presence of MTA)
O=C(NC[C@H](O)CN1CCc2c(ccc(OCc3cnco3)c2Br)C1)c1ccnc(NC2CCCC2)c1 [Compound 404, (S)—N-(3-(5-bromo-6-(oxazol-5-ylmethoxy)-3N-dihydroisoquinolin-2(1H)-yl)-2-hydroxypropyl)-2-(cyclopentylamino)isonicotinamide]	≥ 10000 nM	50 to 500 nM	≥ 10000 nM	≥ 5000 nM	50 to 500 nM		A (a Ki ratio greater than or equal to 10 fold between the Ki in the presence of SAM and the Ki in the presence of MTA)	C* (an IC50 ratio of less than 3 fold between the IC50 in the HAP1 MTAP-intact cell line and the HAP1 MTAP-deleted cell line)	
Cc1c(OCc2cnco2)ccc2c1CCN(C[C@@H](O)CNC(=O)c1ccnc(NC3CCN(C(=O)C(C)C)CC3)c1)C2 [Compound 427]	≥ 10000 nM	50 to 500 nM	1000 to 10000 nM		50 to 500 nM	500 to 5000 nM		B* (an IC50 ratio greater than or equal to 3 fold but lower than 10 fold between the IC50 in the HAP1 MTAP-intact cell line and the HAP1 MTAP-deleted cell line)	A (a Ki ratio greater than or equal to 10 fold between the Ki in the presence of SAM and the Ki in the presence of MTA)
